In ChEMBL document CHEMBL5291721, “A preclinical secondary pharmacology resource illuminates target-adverse drug reaction associations of marketed drugs” (Nat Commun, 2023):

What was measured:
[1] = target: T1, Alpha-1A adrenergic receptor (Homo sapiens, UniProt P35348); type: functional, cell-based
T1 sequence (P35348 whole entry): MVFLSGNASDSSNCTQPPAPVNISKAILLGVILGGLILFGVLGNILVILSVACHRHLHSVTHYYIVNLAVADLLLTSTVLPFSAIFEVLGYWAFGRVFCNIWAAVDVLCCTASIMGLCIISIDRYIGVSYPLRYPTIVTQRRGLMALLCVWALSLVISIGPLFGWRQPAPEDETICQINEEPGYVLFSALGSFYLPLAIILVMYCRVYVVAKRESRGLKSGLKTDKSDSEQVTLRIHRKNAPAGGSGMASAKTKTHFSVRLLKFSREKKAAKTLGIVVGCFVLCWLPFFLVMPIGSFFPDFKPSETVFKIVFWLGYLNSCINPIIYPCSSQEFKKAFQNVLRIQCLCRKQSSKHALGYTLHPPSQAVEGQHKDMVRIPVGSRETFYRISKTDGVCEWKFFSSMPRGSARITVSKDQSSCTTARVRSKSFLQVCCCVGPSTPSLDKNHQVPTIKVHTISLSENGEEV

[2] = target: Gamma-aminobutyric acid receptor subunit alpha-1 (Rattus norvegicus, UniProt P62813)
Histamine H2 receptor = Histamine H2 receptor (Homo sapiens, UniProt P25021); type: functional, cell-based
Estrogen receptor = target: T2, Estrogen receptor (Homo sapiens, UniProt P03372)
T2 sequence (P03372 whole entry): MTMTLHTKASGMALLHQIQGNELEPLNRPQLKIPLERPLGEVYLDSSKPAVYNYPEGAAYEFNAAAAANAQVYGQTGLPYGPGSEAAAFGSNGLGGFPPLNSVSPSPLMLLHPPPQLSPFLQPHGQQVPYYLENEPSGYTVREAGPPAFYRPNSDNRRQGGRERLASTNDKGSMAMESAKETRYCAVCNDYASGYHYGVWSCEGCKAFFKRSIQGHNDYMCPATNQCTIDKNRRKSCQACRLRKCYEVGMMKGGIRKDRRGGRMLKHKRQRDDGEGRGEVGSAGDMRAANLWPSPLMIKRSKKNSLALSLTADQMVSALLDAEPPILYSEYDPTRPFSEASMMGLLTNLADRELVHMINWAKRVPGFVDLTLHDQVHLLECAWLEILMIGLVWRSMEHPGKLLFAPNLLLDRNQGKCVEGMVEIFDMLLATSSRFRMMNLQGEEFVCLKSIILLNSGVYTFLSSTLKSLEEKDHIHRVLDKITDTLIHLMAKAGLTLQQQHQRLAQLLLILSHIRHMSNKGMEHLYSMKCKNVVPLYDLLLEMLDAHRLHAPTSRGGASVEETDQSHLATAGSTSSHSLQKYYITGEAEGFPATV

[3] = target: T3, Muscarinic acetylcholine receptor M1 (Homo sapiens, UniProt P11229); type: functional, cell-based
T3 sequence (P11229 whole entry): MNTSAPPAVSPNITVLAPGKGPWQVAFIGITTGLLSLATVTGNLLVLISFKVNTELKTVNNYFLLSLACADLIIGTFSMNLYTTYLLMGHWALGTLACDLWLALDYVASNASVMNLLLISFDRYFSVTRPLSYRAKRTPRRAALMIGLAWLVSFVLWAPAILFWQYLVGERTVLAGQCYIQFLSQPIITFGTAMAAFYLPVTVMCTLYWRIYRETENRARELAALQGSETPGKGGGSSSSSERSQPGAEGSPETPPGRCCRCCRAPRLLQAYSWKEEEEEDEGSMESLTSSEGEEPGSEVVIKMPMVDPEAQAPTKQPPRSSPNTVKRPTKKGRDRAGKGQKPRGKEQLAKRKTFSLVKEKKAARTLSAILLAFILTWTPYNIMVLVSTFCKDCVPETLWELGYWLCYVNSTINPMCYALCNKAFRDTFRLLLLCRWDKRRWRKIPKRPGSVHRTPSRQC

[4] = target: T4, Prostaglandin G/H synthase 1 (Rattus norvegicus, UniProt Q63921); type: functional
T4 sequence (Q63921 whole entry): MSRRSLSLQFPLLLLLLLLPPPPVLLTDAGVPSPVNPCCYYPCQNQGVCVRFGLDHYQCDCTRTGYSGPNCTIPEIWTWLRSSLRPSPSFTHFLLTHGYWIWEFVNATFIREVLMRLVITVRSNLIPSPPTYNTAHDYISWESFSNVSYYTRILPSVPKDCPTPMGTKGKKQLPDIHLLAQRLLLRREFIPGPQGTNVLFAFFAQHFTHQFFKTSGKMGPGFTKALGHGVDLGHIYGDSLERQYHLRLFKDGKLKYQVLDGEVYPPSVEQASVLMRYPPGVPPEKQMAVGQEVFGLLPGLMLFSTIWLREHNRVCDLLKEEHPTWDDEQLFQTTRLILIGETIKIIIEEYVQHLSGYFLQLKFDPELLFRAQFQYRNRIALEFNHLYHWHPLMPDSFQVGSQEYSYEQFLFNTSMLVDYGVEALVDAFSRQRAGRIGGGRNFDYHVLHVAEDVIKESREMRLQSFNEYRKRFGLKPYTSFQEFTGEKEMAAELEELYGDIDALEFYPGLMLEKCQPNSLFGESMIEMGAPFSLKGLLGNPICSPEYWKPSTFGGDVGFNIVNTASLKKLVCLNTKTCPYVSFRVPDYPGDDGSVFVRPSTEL

[5] = target: cGMP-inhibited 3',5'-cyclic phosphodiesterase 3A (Homo sapiens, UniProt Q14432); type: functional
Cannabinoid receptor 1 = Cannabinoid receptor 1 (Homo sapiens, UniProt P21554); type: functional, cell-based
Thromboxane A2 receptor = target: T5, Thromboxane A2 receptor (Homo sapiens, UniProt P21731); type: functional, cell-based
T5 sequence (P21731 whole entry): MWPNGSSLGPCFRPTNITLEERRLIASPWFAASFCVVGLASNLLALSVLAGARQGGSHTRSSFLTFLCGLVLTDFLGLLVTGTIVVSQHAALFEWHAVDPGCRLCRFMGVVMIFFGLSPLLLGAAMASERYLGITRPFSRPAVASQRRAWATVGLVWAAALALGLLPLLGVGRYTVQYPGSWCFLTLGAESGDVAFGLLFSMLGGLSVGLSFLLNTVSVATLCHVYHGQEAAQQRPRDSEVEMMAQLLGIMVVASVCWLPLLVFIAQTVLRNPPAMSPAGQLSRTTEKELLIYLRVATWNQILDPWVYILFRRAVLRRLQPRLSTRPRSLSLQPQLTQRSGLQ
Also: assay procedure not described here.

Sequence of cGMP-inhibited 3',5'-cyclic phosphodiesterase 3A (Q14432 whole entry): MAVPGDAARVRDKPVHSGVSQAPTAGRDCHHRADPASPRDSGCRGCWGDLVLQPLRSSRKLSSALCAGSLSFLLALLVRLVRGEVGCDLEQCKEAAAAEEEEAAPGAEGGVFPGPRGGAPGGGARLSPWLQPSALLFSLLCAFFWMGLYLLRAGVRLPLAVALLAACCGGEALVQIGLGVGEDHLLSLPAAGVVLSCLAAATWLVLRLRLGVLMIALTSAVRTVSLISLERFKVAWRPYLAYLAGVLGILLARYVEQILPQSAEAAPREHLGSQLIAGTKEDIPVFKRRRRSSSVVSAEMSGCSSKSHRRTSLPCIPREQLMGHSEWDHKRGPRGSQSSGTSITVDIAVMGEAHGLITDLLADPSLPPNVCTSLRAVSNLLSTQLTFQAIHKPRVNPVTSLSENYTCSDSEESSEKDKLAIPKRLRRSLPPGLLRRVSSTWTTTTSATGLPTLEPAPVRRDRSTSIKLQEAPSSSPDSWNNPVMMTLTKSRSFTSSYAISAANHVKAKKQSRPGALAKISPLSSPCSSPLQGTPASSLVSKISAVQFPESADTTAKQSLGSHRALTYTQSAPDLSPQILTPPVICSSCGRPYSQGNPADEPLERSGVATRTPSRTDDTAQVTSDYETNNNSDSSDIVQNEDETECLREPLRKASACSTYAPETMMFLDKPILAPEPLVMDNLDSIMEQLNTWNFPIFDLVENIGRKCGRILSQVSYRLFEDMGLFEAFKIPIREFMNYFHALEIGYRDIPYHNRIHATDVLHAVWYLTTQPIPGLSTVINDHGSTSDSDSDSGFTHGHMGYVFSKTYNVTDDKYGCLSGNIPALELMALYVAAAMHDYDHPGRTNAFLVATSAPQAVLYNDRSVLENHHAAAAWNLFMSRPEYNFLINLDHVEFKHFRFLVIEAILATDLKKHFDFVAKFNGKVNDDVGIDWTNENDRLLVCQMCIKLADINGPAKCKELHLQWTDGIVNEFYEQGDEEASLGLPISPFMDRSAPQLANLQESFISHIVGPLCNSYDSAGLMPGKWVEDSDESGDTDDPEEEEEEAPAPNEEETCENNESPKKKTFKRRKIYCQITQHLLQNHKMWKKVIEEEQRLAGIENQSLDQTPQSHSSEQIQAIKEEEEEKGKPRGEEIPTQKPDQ
Sequence of Histamine H2 receptor (P25021 whole entry): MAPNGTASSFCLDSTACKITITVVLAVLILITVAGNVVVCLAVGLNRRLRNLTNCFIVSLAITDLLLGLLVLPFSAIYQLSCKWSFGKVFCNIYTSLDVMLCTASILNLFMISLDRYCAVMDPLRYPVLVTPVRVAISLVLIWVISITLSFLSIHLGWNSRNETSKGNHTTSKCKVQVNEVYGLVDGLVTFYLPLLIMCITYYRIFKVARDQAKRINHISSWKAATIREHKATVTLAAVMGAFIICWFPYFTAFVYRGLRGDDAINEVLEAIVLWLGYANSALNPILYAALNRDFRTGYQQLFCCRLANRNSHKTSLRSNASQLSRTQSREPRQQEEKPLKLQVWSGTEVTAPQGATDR
Sequence of Gamma-aminobutyric acid receptor subunit alpha-1 (P62813 whole entry): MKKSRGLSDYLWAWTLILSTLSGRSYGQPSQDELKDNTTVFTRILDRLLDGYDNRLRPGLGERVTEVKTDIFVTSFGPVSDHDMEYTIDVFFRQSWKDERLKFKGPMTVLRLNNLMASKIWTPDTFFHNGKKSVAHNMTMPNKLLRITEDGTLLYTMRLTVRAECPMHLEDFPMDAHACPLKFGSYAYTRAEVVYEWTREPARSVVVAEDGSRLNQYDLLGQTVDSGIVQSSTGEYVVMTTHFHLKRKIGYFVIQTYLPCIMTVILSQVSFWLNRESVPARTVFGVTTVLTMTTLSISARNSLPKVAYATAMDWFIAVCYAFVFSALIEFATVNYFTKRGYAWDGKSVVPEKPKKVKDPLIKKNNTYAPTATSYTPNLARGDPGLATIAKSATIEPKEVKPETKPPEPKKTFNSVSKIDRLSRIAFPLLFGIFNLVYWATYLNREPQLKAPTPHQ
Sequence of Cannabinoid receptor 1 (P21554 whole entry): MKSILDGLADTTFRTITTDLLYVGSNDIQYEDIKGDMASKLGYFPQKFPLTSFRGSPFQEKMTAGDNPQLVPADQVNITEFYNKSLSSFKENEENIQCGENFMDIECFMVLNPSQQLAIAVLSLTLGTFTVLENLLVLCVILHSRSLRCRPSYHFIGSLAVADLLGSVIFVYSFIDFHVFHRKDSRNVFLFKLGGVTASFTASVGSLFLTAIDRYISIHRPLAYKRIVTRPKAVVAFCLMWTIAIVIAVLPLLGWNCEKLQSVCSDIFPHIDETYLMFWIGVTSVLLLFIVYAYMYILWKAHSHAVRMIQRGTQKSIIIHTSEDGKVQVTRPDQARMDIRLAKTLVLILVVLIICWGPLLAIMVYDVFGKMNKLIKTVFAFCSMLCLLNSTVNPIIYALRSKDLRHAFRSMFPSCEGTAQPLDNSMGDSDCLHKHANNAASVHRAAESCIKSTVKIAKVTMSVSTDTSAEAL

Compound | AC50 [1] [µM] | AC50 [2] [µM] | AC50 (Histamine H2 receptor) [µM] | AC50 (Estrogen receptor) [µM] | AC50 [3] [µM] | AC50 [4] [µM] | AC50 [5] [µM] | AC50 (Cannabinoid receptor 1) [µM] | AC50 (Thromboxane A2 receptor) [µM]
O=C(Nc1ccccc1)OCC(CN1CCCCC1)OC(=O)Nc1ccccc1 (configuration not stated) [DIPERODON] | > 30 | > 10 | > 10 | > 30 | > 30 | > 30 | > 30 | > 30 | > 30
C[C@@H]1C[C@H]2[C@@H]3C[C@H](F)C4=CC(=O)C(Cl)=C[C@]4(C)[C@@]3(F)[C@@H](O)C[C@]2(C)[C@@]1(O)C(=O)CO [HALOMETASONE] | – | – | – | > 30 | 13.1 | – | > 30 | – | > 30
CC(C)Cc1ccc(C(C)C(=O)NO)cc1 (configuration not stated) [IBUPROXAM] | – | – | – | > 30 | 20.1 | – | > 30 | – | > 30
CC/C=C\C/C=C\C/C=C\C/C=C\C/C=C\CCCC(=O)O [ICOSAPENT] | – | – | – | > 30 | > 30 | – | > 30 | – | > 30
CCC(Cc1c(I)cc(I)c(N)c1I)C(=O)O (configuration not stated) [IOPANOIC ACID] | – | – | – | > 30 | 14.5 | – | > 30 | – | > 30
O=C(NC1CCN(CCCCC2(C(=O)NCC(F)(F)F)c3ccccc3-c3ccccc32)CC1)c1ccccc1-c1ccc(C(F)(F)F)cc1 [LOMITAPIDE] | – | – | – | > 30 | 3.86 | – | > 30 | – | 8.46
CCN(CC)CCNc1ccc(C)c2sc3ccccc3c(=O)c12 [LUCANTHONE] | – | – | – | > 30 | 4.21 | – | > 30 | – | > 30
CCOC(=O)CC(SP(=S)(OC)OC)C(=O)OCC (configuration not stated) [MALATHION] | – | – | – | > 30 | 27.1 | – | > 30 | – | > 30
O=[N+]([O-])c1cncn1CCN1CCOCC1 [NIMORAZOLE] | – | – | – | > 30 | > 30 | – | > 30 | – | > 30
NC(=O)c1cccc2cn(-c3ccc([C@@H]4CCCNC4)cc3)nc12 [NIRAPARIB] | – | – | – | > 30 | > 30 | – | > 30 | – | > 30
O=C(O)CCn1c2c(c3ccccc31)C[C@H](NS(=O)(=O)c1ccc(F)cc1)CC2 [RAMATROBAN] | – | > 10 | > 30 | > 10 | > 30 | > 30 | > 30 | – | > 30
CN1CCC2=C(C1)c1ccccc1Cc1ccccc12 [SETIPTILINE] | – | – | – | > 30 | 8.28 | – | > 30 | – | > 30
COc1ccc(CCC(C)NCC(O)c2ccc(O)c([S+](C)[O-])c2)cc1 (configuration not stated) [SULFINALOL] | – | – | – | > 30 | > 30 | – | > 30 | – | > 30
CCC1C(C)=NN=C(c2ccc(OC)c(OC)c2)c2cc(OC)c(OC)cc21 (configuration not stated) [TOFISOPAM] | – | – | – | > 30 | 25.3 | – | 6.62 | – | > 30
COc1cc(NCc2ccc3nc(N)nc(N)c3c2C)cc(OC)c1OC [TRIMETREXATE] | – | – | – | 23 | 12.3 | – | 11.9 | – | > 30
COc1cc2c(cc1OC)[C@H]1C[C@@H](OC(=O)[C@@H](N)C(C)C)[C@H](CC(C)C)CN1CC2 [VALBENAZINE] | – | – | – | > 30 | > 10 | – | > 30 | – | > 30
